Assay results from patent US5686495A, “Substituted hydrazinedicarboximidamides and methods of use thereof” (Cambridge NeuroScience, Inc., priority 1995, dated 1997).
“Also recorded” adds a separate entry of the source. Where a name gives a salt, the structure may show the parent alone. Read-outs that look alike come from different tables or passages of the source.

Legend:
[1] = system: 3H-glutamate release from rat brain synaptosomes; test: Inhibition of K+-evoked 3H-glutamate release from synaptosomes (rapid superfusion); format: cell-based; conditions: for inhibition at 10 µM: read-out: Inhibition of Glutamate Release (Persistent Component), % Inhibition @ 10 uM; for inhibition at 30 µM: read-out: inhibition of glutamate release; for activity at 30 µM / activity at 100 µM: read-out: relative level of glutamate release
Method: To study the release of presynaptic ^3 H-glutamate, synaptosomes from young rats were used. CD Male rats of 4 to 6 weeks (50-75 g) were used for the preparation of synaptosomes. Rats were killed by decapitation with guillotine and the skull bone was opened in the center with the pointed blade of dissection scissors. The bone is then peeled away with a bone cutter and the brain is pried with a micro spatula. The cerebellum is removed and the rest of the brain is placed in 35 ml of 0.32M Sucrose solution and homogenized in a Thomas glass teflon homogenizer C at the maximum power setting (about 450 rpm) with 16 strokes. The pestle is rinsed with 5 ml of sucrose solution and added to the homogenate. The homogenate is centrifuged for 10 min at 3500 rpm (1500 g) in a SS-34 rotor in Sorvall RC-5B. The resulting pellet (P1) is discarded and the supernatant (S1) is recentrifuged for 20 min at 8700 rpm (8500 g). The supernatant (S2) is discarded and the pellet (P2) is resuspended in 5 ml of 0.32M sucrose and hand homogenized with 4 strokes (Thomas C) and the volume was made up to 8 ml. This homogenate was layered on 20 ml of 0.8M sucrose solution in two centrifuge tubes and spun for 25 minutes at 8700 rpm (8500 g). At the end of this spin, most of the myelin stays at the interphase of 0.32M and 0.8M sucrose and mitochondria pellet as a brown pellet. The synaptosomes are dispersed in the 0.8M sucrose. Using a 10 ml pipette, the 0.8M sucrose layer is collected (without disturbing the top myelin layer or the pellet) and diluted slowly with an equal volume of chilled basal buffer, while stirring gently with a Pasteur pipette. This diluted solution is centrifuged for 10 min at 10,000 rpm (12,000 g) and the pellet is resuspended in 1.5 ml of basal buffer and hand-homogenized in a Wheaton glass-glass 7 ml homogenizer with 8 strokes.
The synaptosomal homogenate is diluted 1 ml to 10 ml with basal buffer. This dilution gives a protein concentration of 500 to 600 μg/ml. One hundred μl of this diluted prep with 50-60 μg of protein is used for each superfusion event. […] The diluted synaptosomal solution was kept on ice until the end of the experiment.
^3 H-glutamate (purchased from NEN) is stored in the refrigerator. Pipette 6 μl ([…]; 40 to 55 Ci/mmol) into a disposable test tube. Add 100 μl of diluted prep and mix gently on vortex and incubate at 30° C. for 10 min. ^3 H-glutamate is taken up by sodium-coupledglutamate transporter present in synaptosomal membranes. After 10 min, dilute the incubation mixture with 690 μl of basal buffer. This solution is then transferred in Tygon tubing that is connected to the synaptosome loading chamber. Using a syringe filler with air, the solution is forced through the Millipore SC--GF/F--Millipore SC filter sandwich. These filters retain the synaptosomes and the solution flows through.
An important component of the superfusion setup is the custom made stainless steel "General Valve" three-valve solenoid operated superfusion chamber with an outlet for the effluent. The three inlets are connected to stainless steel buffer reservoirs that contain (1) wash buffer, (2) control buffer and (3) experimental buffer which are kept under 40 psi of nitrogen gas through teflon tubing connections. The superfusion is controlled through a menu-driven program on an Apple IIe computer. See Turner, J. T. et al., Anal. Biochem. 178:8-16 (1989), and U.S. Pat. No. 4,891,185, the disclosures of which are fully incorporated by reference herein.
The superfusion chamber has a teflon bushing and a stainless steel washer fixed with the flat surface facing the filters. A GF/B filter disc is placed first in the chamber to eliminate the switching related artifacts. The synaptosome loaded sandwich is then placed facing the synaptosomes into the flow followed by RA filter, stainless steel screen and a washer with the flat side facing the screen.

[2] = system: potassium-stimulated 45Ca uptake of synaptosomes; test: Potassium-stimulated 45Ca uptake into synaptosomes; format: cell-based, rat
Method: Several compounds were also tested to determine whether the Ca^2+ dependent and independent components of glutamate release are related to the blockage of ^45 Ca uptake. Calcium uptake is one step in the cascade of events which occur in neuronal cell death from ischemia. See Bassaclough and Leach, Current Patents Ltd., 2-27. The Ca-flux protocol is as follows. Rat brain synaptosomes were prepared according to Hajos, Brain Res. 93:485 (1975). Synaptosomes were suspended in low potassium "LK" buffer (containing 3 mM KCl) at 2 mg/ml. […] After 5 seconds, the ^45 Ca flux was stopped with 0.9 ml quench solution (LK+10 mM EGTA). The solution was filtered under vacuum and the filters washed with 15 ml of quench buffer. The effect of drug is expressed as % inhibition (or block) of control potassium-stimulated ^45 Ca influx. This method is an adaptation of the method disclosed by Nachsen and Blaustein, J. Physiol. 361:251-268 (1985).

[3] = system: hippocampal slices (Schaffer collateral synaptic potentials); test: Hippocampal slice electrophysiology of excitatory synaptic transmission (field EPSP, population spikes); design: species or system Sprague-Dawley rats; conditions: for inhibition at 20 µM: Rattus norvegicus
Method: Transverse sections of hippocampus were obtained from 4-6 week old Sprague-Dawley rats and maintained under standard conditions. […] Extracellular excitatory post synaptic potentials (EPSP's) were recorded by placing a saline-filled glass microelectrode in either the stratum radiatum or stratum lacunosum. Population spikes were recorded by placing an electrode in the stratum pyramidole.

[4] = system: ω-conotoxin-sensitive N-type calcium channels; test: Electrophysiology on N-type calcium channels of single dorsal root ganglion cells; format: cell-based, bullfrog
Method: Single bullfrog dorsal root ganglion cells, which express ω-conotoxin-sensitive N-type calcium channels, were treated with 5 uM of N,N'-di(acenaphthyl) guanidine. The solution also contained (in mM) CsCl, 90; creatine phosphate, 5; MgATP, 5; tris GTP, 0.3; EGTA, 10; HEPES, 10; pH 7.2. […] Calcium channel rundown during the recording period may account for the lack of complete reversal of inhibition. This further supports the hypothesis that certain substituted guanidines inhibit neurotransmitter release by […] presynaptic calcium channels.

[5] = system: sodium channels in N1E-115 neuroblastoma cells; test: Whole cell sodium currents in voltage clamped N1E-115 neuroblastoma cells; format: cell-based
From the text: Whole cell sodium currents were elicited in voltage clamped N1E-115 neuroblastoma cells, using the stimulus protocol shown on the top of FIG. 7.

sigma receptor = test: Sigma receptor binding against 3H-DTG
[6] = system: Ca2+-dependent glutamate release stimulated with the sodium channel activator veratridine; test: Glutamate release of synaptosomes depolarized with veratridine; format: cell-based; conditions: various concentrations
[7] = Rattus norvegicus, read-out: Inhibition of 45Ca Uptake, % Inhibition @ 10 uM (SEM)
[8] = bath application, listed as N,N'-di(5-acenaphthyl)guanidine, Hydrobromide
[9] = Rattus norvegicus; read-out: Inhibition of 45Ca Uptake, IC50

## Br.N=C(Nc1ccc2c3c(cccc13)CC2)Nc1ccc2c3c(cccc13)CC2 [N,N'-Bis(5-acenaphthyl)guanidine, N,N'-Bis (5-Acenaphthyl)Guanidine Hydrobromide]
[1]; 0, 1, 3, 10 uM, K+ depolarization
  inhibition of Ca2+-dependent [3H]glutamate release (FIG. 3): potent inhibitor of glutamate release
[1]; 3-10 uM
  selectivity between persistent and transient component of Ca2+-dependent glutamate release: blocks the persistent component of Ca^2+ -dependent glutamate release more than the initial transient component
[1]; Rattus norvegicus
  inhibition at 10 µM: 92%
[1]; Rattus norvegicus, read-out: Inhibition of Glutamate Release (Persistent Component), IC50
  IC50: 3000 nM
[2]; Rattus norvegicus, read-out: % Uptake vs. Control
  activity at 10 µM: 43%
[2]; [7]
  inhibition at 10 µM: 46%
[2]; Rattus norvegicus, read-out: Inhibition of 45Ca Uptake, IC50
  IC50: 10.7 ± 3 µM
[3]; bath application, read-out: reduction of field EPSP amplitude
  inhibition at 20 µM: 80 to 90%
[3]; bath application, read-out: reduction of population spike amplitude
  inhibition at 20 µM: 80 to 90%
[3]; [8]
  effect on field EPSP: reversibly blocked; also recorded: almost completely eliminated the field EPSP
  effect on population spikes: completely eliminated population spikes; also recorded: reversibly blocked these population spikes
[3]; following washout, listed as N,N'-di(5-acenaphthyl)guanidine, Hydrobromide
  reversibility of effect: completely reversible following washout; also recorded: fully reversible following washout; also recorded: fully recovered following washout
[4]; 5 uM
  inhibition of N-type calcium channel current: about 40%
[4]; 20 uM
  inhibition of N-type calcium channel current: inhibited nearly all of the current
[4]; in about 6 minutes
  reversal of N-type current inhibition: Most of the inhibition was reversed
[5]; 30 uM, pressure ejection, N=5 cells
  block of inward sodium currents, average: 40%
[5]; 30 uM, single cell of FIG. 7
  inhibition of inward sodium current in the cell shown (FIG. 7): 49%
[5]; following washout
  reversal of sodium current block: partially reversed following washout

## N=C(NC12CC3CC(CC(C3)C1)C2)NC12CC3CC(CC(C3)C1)C2 [N,N'-di-(adamantan-1-yl)guanidine]
[1]; 0, 10, 30, 100 uM, 2.1 second K+ depolarizing pulse
  concentration dependence of 3H-glutamate release (FIG. 2): decreasing release of glutamate from synaptosomes
[1]; Rattus norvegicus
  inhibition at 10 µM: 49%
  inhibition at 30 µM: 55%
  activity at 30 µM: 45%
  activity at 100 µM: 13%
[2]; [7]
  inhibition at 10 µM: 25%
[2]; Rattus norvegicus; FIG. 6 curve fits; read-out: IC50, inhibition of potassium-stimulated Ca uptake of synaptosomes (FIG. 6)
  IC50: 6.6 µM
[2]; [9]
  IC50: 25 ± 9 µM
Sigma receptor
  IC50: 16.5 nM

## N=C(NC1C2CC3CC(C2)CC1C3)NC1C2CC3CC(C2)CC1C3 (centres unmarked) [N,N'-di-(adamantan-2-yl)guanidine, N,N'-(Adamantan-2-yl)guanidine Hydrochloride]
[1]; Rattus norvegicus
  inhibition at 10 µM: 60%
  inhibition at 30 µM: 60%
  activity at 30 µM: 40%
  activity at 100 µM: 20%
[2]; [7]
  inhibition at 10 µM: 35%
[2]; [9]
  IC50: 16.1 ± 10 µM
Sigma receptor
  IC50: 92.7 nM
[6]
  inhibition of veratridine-stimulated glutamate release (FIG. 5): inhibition of glutamate release in a dose dependent manner
